# Assay results: patent US20220251517A1
# Counter-ions that a name gives are not always drawn.
# Key:
# [1] = tested on: arrhythmic cardiac microtissues (hiPSC-CM, cell line 1); test: Anti-arrhythmic drug testing on arrhythmic cardiac microtissues (optical mapping)
# [2] = tested on: cardiac microtissues (hiPSC-CMs and human cardiac fibroblasts); test: Arrhythmia induction in 3D cardiac microtissues (brightfield beat rate, optical mapping, stimulation capture); type: cell-based; conditions: for presence of arrhythmias at endpoint: N=3
# Method: (§1) Tissues were allowed to compact for 7 days (Day -7 to 0) and treatment with either arrhythmogenic or control media conditions began on day 8 post-seeding (e.g. Day 0 in FIG. 1A). Arrhythmogenic media consisted of DMEM no glucose (ThermoFisher; 11966025), B-27 minus insulin supplement (1×; ThermoFisher; A1895602), HEPES (10 mM), L-carnitine (2 mM), creatine (5 mM), taurine (5 mM), MEM non-essential amino acids ([…]; ThermoFisher; 11140050), insulin-transferrin-selenium (1×; ThermoFisher; 41400045), galactose (10 mM), MBCD or MBCD-conjugated FAs as follows: hiPSC-CMs were treated with 100 μM FAs (linoleic acid 40 μM, oleic acid 40 μM, and palmitic acid 20 μM; MBCD 0.8 mM); and hESC-CMs were treated with 200 μM FAs (linoleic acid 80 μM, oleic acid 80 μM, and palmitic acid 40 μM; MBCD 1.6 mM)), glutamine (1 mM), and antibiotic-antimycotic. […] Instead, control media were supplemented with glucose (5 mM) and either FA vehicles (MBCD) at a lower dose of MBCD than the arrhythmogenic media (0.5 mM) or no MBCD (to confirm MBCD was the arrhythmogenic agent). Microtissues were treated by addition of media containing the components described above for up to 5 days and analyzed (e.g., imaging, tissue harvesting for isolation of RNA for transcriptomic analysis, fixing tissues for histopathological assessments/staining) at different time points to assess functional and transcriptomic parameters (see FIG. 1A).
# During contractile force measurements, cardiac microtissues were electrically stimulated at 1 Hz and at their respective excitation threshold and videos of the 1:30 PDMS rods were taken for 15 seconds under 10× magnification with a Leica EC3 camera. For tissue compaction and spontaneous beating rate measurements, the tissues were not stimulated.
# To assess the range of stimulation capture, microtissues were stimulated by a silver electrode at 3 Hz and 6V, and the distance from the electrode to which point the cardiac microtissue was not electrically captured by the delivered electrical impulse was marked as the range of stimulation capture (mm) (e.g., see FIG. 1H).
# [3] = tested on: 5-day arrhythmic cardiac microtissues; test: Arrhythmia reversal by removal of MBCD from media; type: cell-based, human; conditions: 5 days arrhythmogenic media
# Method: as §1
# Finally, it was reasoned that if MBCD was causing arrhythmias, removal of MBCD from culture media could reverse arrhythmias. To test this, 5-day arrhythmogenic tissues were cultured in control media for 5 additional days (see FIG. 6A). […] Arrhythmic tissues progressively regained synchronicity, allowing for the measurement of beat frequency.
# [4] = isoproterenol added to lidocaine-treated arrhythmic tissues
# [5] = arrhythmic tissues, acute treatment 30 min, lidocaine 17.5 μg/mL
compound,measurement,setting,value
"CCCCc1oc2ccccc2c1C(=O)c1cc(I)c(OCCN(CC)CC)c(I)c1 [amiodarone, Amiodarone]","electrophysiological changes (wavefronts per frame, conduction velocity, cycle length)","[1]; arrhythmic tissues, acute treatment 30 min, flecainide 10 μM, propranolol 4 μg/mL, amiodarone 30 μg/mL",did not produce any significant electrophysiological changes
CC(C)NCC(O)c1ccc(O)c(O)c1 (stereo not drawn) [isoproterenol],conduction velocity,[1]; [4],increase
same,cycle length,[1]; [4],reduction
same,mean wavefronts per frame,[1]; [4],no change
BSA-ligated fatty acids: BSA-ligated fatty acids used in place of MBCD-conjugated fatty acids,induction of arrhythmogenesis,[2]; BSA-ligated fatty acids instead of MBCD-conjugated fatty acids,no effect
O=C[C@H](O)[C@@H](O)[C@@H](O)[C@H](O)CO [galactose],presence of arrhythmias at endpoint,"[2]; media containing only galactose (10 mM), no MBCD",did not become arrhythmic
"CCN(CC)CC(=O)Nc1c(C)cccc1C [lidocaine, Lidocaine HCl]",conduction velocity,[1]; [5],significantly decreased
same,cycle length duration,[1]; [5],increasing
same,mean number of wavefronts per frame,[1]; [5],significant reduction
methyl-β-cyclodextrin [MBCD],development of arrhythmias,"[2]; low MBCD concentration 0.5 mM (control media), 5 days",did not develop arrhythmias
same,presence of arrhythmias at endpoint,"[2]; media containing both MBCD and glucose (5mM), 5 days",arrhythmias were also induced
same,Cx43 and N-Cad expression and co-localization after arrhythmia reversal,[3]; then 5 days control media,significant increase
same,passive force after arrhythmia reversal,[3]; then 5 days control media,without significant changes
same,synchronicity after removal of MBCD,[3]; then 5 days control media,started beating synchronously
same,contractile force of reverted tissues relative to age matched control tissues,"[3]; then control media, plateau, p<0.0001",~50%
